According to patent publication US12396961B2, “Compounds and compositions for intracellular delivery of agents” (ModernaTX, Inc., priority 2015, dated 2025):
Where two headings read alike, the source gives them in different places.

Tests used:
[1] = tested on: luciferase (Luc) mRNA expression; assay: Luc expression (AUC) in CD-1 mice relative to MC3; type: in vivo; conditions: for Liver/Spleen Ratio / Lipid/MC3 AUC: Table 7c; for Lipid/MC3 AUC: AUC relative to MC3; for Lipid/MC3 Luc CD-1 (mice): Luc expression relative to MC3, CD-1 mice; for Lipid/MC3 AUC CD-1 mice 0.5 mpk: Table 7b, Luc expression
Method: FIG. 15 is a graph summarizing luciferase expression levels at 6 h after administration of nanoparticle compositions containing compounds of the disclosure to CD-1 mice at a dose of 0.5 mpk. Total light flux values were acquired via body luminescent imaging (BLI) 6 h after administration. In this Figure, the numbers 1-7 and 10 refer to the compositions containing Compounds 4-10 and MC3 respectively.
In contrast, hEPO expression in rats induced by administration of nanoparticle composition including compound according to one of formulae (I), (Ia1)-(Ia6), (Ib), (II), (IIa), (III), and (IIIa) was substantially lower than that measured for MC3. […] Table 7c and 7d show additional protein expressions and clearance data from compositions with various compounds disclosed herein as compared to with MC3.

[2] = Lipid clearance: % dose remaining in mice (liver) 6 h and 24 h after administration of nanoparticle compositions; type: in vivo, CD-1 mice; conditions: Table 7c, species not given
[3] = tested on: luciferase (Luc) mRNA expression; assay: Expression of Luc in different organs (liver, lung, spleen, femur) 6 hours after intravenous administration; type: in vivo; conditions: mice i.v. 0.5 mpk
Method: The efficacy of the nanoparticle compositions presented in Tables 1, la, 17-1, 19-1, 20-1 and 21-1 was further evaluated by measuring the expression of modified luciferase in the liver, lung, spleen, and femur upon administration of a given composition. Formulations were administered intravenously to mice (n=3) at a dosage of 0.5 mpk and bioluminescence measured after 6 hours. The standard MC3 formulation and a PBS control were also tested.

[4] = Particle size and polydispersity index (Zetasizer Nano ZS); type: physicochemical; conditions: Table 1; DOPE 40:20:38.5:1.5, Luc mRNA
Outline: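 Particle size and polydispersity index were measured by dynamic light scattering on a Zetasizer Nano ZS in 1×PBS. Zeta potential was measured in 15 mM PBS.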

[5] = Lipid levels (clearance) in liver and spleen 48 hours after administration; type: in vivo, rats; conditions: for concentration at 48 h: Sprague-Dawley, rat, intravenous
Method: Formulations were administered intravenously to rats (n=3 or 6) at a dosage of 0.2 mg/kg or 0.5 mg/kg (mpk) and hEPO levels measured at 3, 6, and 24 hour time points. After the 48 hour time point, livers and spleens were harvested and frozen.
The amount of lipid in the liver and spleen 48 hours after administration of a nanoparticle composition was also measured. […] In contrast, approximately 60% of doses including MC3 or Compound 22 remained in the liver after 48 hours. Less than 3% of the dose remained in the spleen for each composition tested.

[6] = tested on: LDLr mRNA / Luc expression; assay: Expression (AUC) in LDLr−/− mice relative to KL22; type: in vivo; conditions: Table 7b
hEPO mRNA expression [7] = assay: Expression of hEPO after intravenous administration to rats; type: in vivo; conditions: hEPO expression relative to MC3, S.D. rats, intravenous
Method: PBS (phosphate buffered saline) is used as control.
Formulations were prepared according to Table 5 and included mRNA encoding hEPO.
[…] After the 48 hour time point, livers and spleens were harvested and frozen.

hEPO mRNA expression [8] = assay: Expression of hEPO in mice (CD-1); type: in vivo, CD-1 mice; conditions: hEPO expression relative to MC3, CD-1 mice
Source text: FIG. 12 is a set of graphs illustrating hEPO expression levels in CD-1 mice dosed with compounds of the disclosure, compared to MC3. PBS is used as control. […] In graphs A-C numbers 1-14 refer to compositions containing the following: 1: Compound 73, 2: Compound 80, 3: Compound 70; 4: Compound 81; 5: Compound 69; 6: Compound 82; 7: Compound 83; 8: Compound 62; 9: Compound 84; 10: Compound 85; 11: Compound 86; 12: Compound 87; 13: MC3; 14: PBS.
FIG. 13 is a graph showing hEPO levels (pg/mL) in CD-1 mice up to −25 h after administration of a nanoparticle composition containing compounds of the disclosure, compared to a composition containing MC3. Numbers 1-13 refer to compositions containing the following: 1: Compound 73, 2: Compound 80, 3: Compound 70; 4: Compound 81; 5: Compound 69; 6: Compound 82; 7: Compound 83; 8: Compound 62; 9: Compound 84; 10: Compound 85; 11: Compound 86; 12: Compound 87; 13: MC3. […]

SMILES | % Dose Remaining 24 hr [2] [%] | PDI [4] | Liver/Spleen Ratio [1] | Lipid/MC3 AUC [1] | also measured
CCCCC/C=C\C/C=C\CCCCCCCCC1(CCCCCCCC/C=C\C/C=C\CCCCC)CCC(OC(=O)CCCN(C)C)C1 (stereo not drawn) [Compound 21-4, 3,3-Di((9Z,12Z)-octadeca-9,12-dien-1-yl)cyclopentyl 4-(dimethylamino)butanoate] | – | – | – | – | Total flux in organs, comparison in words over the organs of the table named [3]: lowest expression in each organ
CCCCCCCCCN(CCCCCCC(=O)OCC)CCC1CCN(C(=O)CN(CCCCCCCCC)CCN(CCCCCCCCC)CCCCCCCCC)CC1 [Compound 58, Ethyl 7-((2-(1-(N-(2-(dinonylamino)ethyl)-N-nonylglycyl)piperidin-4-yl)ethyl)(nonyl)amino)heptanoate] | 0.61 | – | 11 | 0.97 | –
CCCCCCCCCN(CCCCCCCCC)CCN(CCCCCCCCC)CC(=O)N1CCN(C(=O)CN(CCCCCCCCC)CCCCC(=O)OCCCC)CC1 [Compound 55, Butyl 5-((2-(4-(N-(2-(dinonylamino)ethyl)-N-nonylglycyl)piperazin-1-yl)-2-oxoethyl)(nonyl)amino)pentanoate] | 1.60 | – | 9 | 0.14 | –
CCCCCCCCCN(CCCCCCCCC)CCC1CCN(C(=O)CN(CCCCCCCCC)CCN(CCCCCCCCC)CCCCCCCCC)CC1 [Compound 49, 2-((2-(Dinonylamino)ethyl)(nonyl)amino)-1-(4-(2-(dinonylamino)ethyl)piperidin-1-yl)ethan-1-one] | – | 0.200 | – | – | Lipid/MC3 Luc CD-1 (mice) [1]: 5.23; % dose remaining Rat liver (48 h) [5]: 38.45%
CCCCCCCCCN(CCCCCCCC(=O)OC)CCC1CCN(C(=O)CN(CCCCCCCCC)CCN(CCCCCCCCC)CCCCCCCCC)CC1 [Compound 57, Methyl 8-((2-(1-(N-(2-(dinonylamino)ethyl)-N-nonylglycyl)piperidin-4-yl)ethyl)(nonyl)amino)octanoate] | 0.24 | – | 15 | 0.85 | % Dose Remaining 6 hr ([2]; 6 hr): 0.88%
CCCCCCCCCN(CCCCCCCCC)CCN(CCCCCCCCC)CC(=O)N1CCN(C(=O)CN(CCCC(=O)OCCCCC)CCCC(=O)OCCCCC)CC1 [Compound 72, Dipentyl 4,4′-((2-(4-(N-(2-(dinonylamino)ethyl)-N-nonylglycyl)piperazin-1-yl)-2-oxoethyl)azanediyl)dibutyrate] | 6.40 | – | 6 | 0.46 | –
CCCCCCCCCN(CCCOC(=O)CCCCC)CCC1CCN(C(=O)CN(CCCCCCCCC)CCN(CCCCCCCCC)CCCCCCCCC)CC1 [Compound 61, 3-((2-(1-(N-(2-(Dinonylamino)ethyl)-N-nonylglycyl)piperidin-4-yl)ethyl)(nonyl)amino)propyl Hexanoate] | 0.13 | – | 30 | 3.27 | –
CCCCC/C=C\C/C=C\CCCCCCCCC1(CCCCCCCC/C=C\C/C=C\CCCCC)CC(OC(=O)CCCN(C)C)C1 [Compound 21-2, 3,3-Di((9Z,12Z)-octadeca-9,12-dien-1-yl)cyclobutyl 4-(dimethylamino)butanoate] | – | – | – | – | Total flux in organs, comparison in words over the organs of the table named [3]: lowest expression in each organ
CCCCCCCCCCCCN(CCCCCCCCCCCC)CCN(CCCCCCCCCCCC)CCN1CCN(CCN(CCCCCCCCC)CCCCCCCCC)CC1 [23 (DOPE)] | – | – | – | – | Lipid/MC3 hEPO S.D. (rats) (hEPO mRNA expression [7]): 0.21; Lipid/MC3 hEPO CD-1 (mice) (hEPO mRNA expression [8]): 2.4; concentration at 48 h ([5]; liver, 48 hours after administration, read-out: Lipid in liver): 32900 ng/g; concentration at 48 h ([5]; spleen, 48 hours after administration, read-out: Lipid in spleen): 26100 ng/g; % remaining dose in liver ([5]; liver, 48 hours after administration): 51.4%; % remaining dose in spleen ([5]; spleen, 48 hours after administration): 2.72%

The next lines start with results.

% Dose Remaining 24 hr [2] [%] | PDI [4] | SMILES | Liver/Spleen Ratio [1] | Lipid/MC3 AUC [1] | also measured
0.77 | – | CCCCCCCCCN(CCCCCCCCC)CCN(CCCCCCCCC)CC(=O)N1CCN(C(=O)CN(CCCCCCCCC)CCCCCCC(=O)OCC)CC1 [Compound 53, Ethyl 7-((2-(4-(N-(2-(dinonylamino)ethyl)-N-nonylglycyl)piperazin-1-yl)-2-oxoethyl)(nonyl)amino)heptanoate] | 17 | 0.07 | –
– | 0.150 | CCCCCCCCCCCCCCN(CCCCCCCCCCCCCC)CCN1CCN(CCN(CCCCCCCCC)CCN(CCCCCCCCC)CCCCCCCCC)CC1 [Compound 20, N^1-(2-(4-(2-(Ditetradecylamino)ethyl)piperazin-1-yl)ethyl)-N^1,N^2,N^2-trinonylethane-1,2-diamine] | – | – | Total flux in organs, comparison in words over the organs of the table named [3]: highest total flux; Lipid/MC3 Luc CD-1 (mice) [1]: 5.0
0.16 | – | CCCCCCCCCN(CCCCCCCCC)CCN(CCCCCCCCC)CC(=O)N1CCN(C(=O)CN(CCCCCCCCC)CCCOC(=O)CCCCC)CC1 [Compound 56, 3-((2-(4-(N-(2-(Dinonylamino)ethyl)-N-nonylglycyl)piperazin-1-yl)-2-oxoethyl)(nonyl)amino)propyl Hexanoate] | 29 | 1.25 | –
– | 0.130 | CCCCCCCCCCCCN(CCCCCCCCCCCC)CCN(CCCCCCCCCCCC)CC(=O)N1CCN(C(=O)CN(CCCCCCCCC)CCCCCCCCC)CC1 [Compound 7, 2-((2-(Didodecylamino)ethyl)(dodecyl)amino)-1-(4-(dinonylglycyl)piperazin-1-yl)ethan-1-one] | – | – | Lipid/MC3 AUC CD-1 mice 0.5 mpk [1]: 1.51; Lipid/KL22 AUC LDLr−/− mice 0.5 mpk, LDLr [6]: 2.46
– | 0.140 | CCCCCCCCCCCCN(CCN(CCCCCCCCC)CCCCCCCCC)CC(=O)N1CCN(C(=O)CN(CCCCCCCCC)CCCCCCCCC)CC1 [Compound 5, 2-(Dinonylamino)-1-(4-(N-(2-(dinonylamino)ethyl)-N-dodecylglycyl)piperazin-1-yl)ethan-1-one] | – | – | Lipid/MC3 AUC CD-1 mice 0.5 mpk [1]: 2.62; Lipid/KL22 AUC LDLr−/− mice 0.5 mpk, LDLr [6]: 1.86
– | 0.200 | CCCCCCCCCN(CCCCCCCCC)CCN(CCCCCCCCC)CC(=O)N1CCN(C(=O)CN(CCCCCCCCC)CCCC(=O)OCCCCC)CC1 [Compound 45, Pentyl 4-((2-(4-(N-(2-(dinonylamino)ethyl)-N-nonylglycyl)piperazin-1-yl)-2-oxoethyl)(nonyl)amino)butanoate] | – | – | Lipid/MC3 Luc CD-1 (mice) [1]: 6.50; % dose remaining Rat liver (48 h) [5]: 8.57%
